Read-outs that look alike come from different tables or passages of the source.

The source of these data is patent publication US20140128365A1, “PYRIDONE/HYDROXYPYRIDINE 11-BETA HYDROXYSTEROID DEHYDROGENASE TYPE I INHIBITORS” (BRISTOL-MYERS SQUIBB COMPANY, priority 2012, published 2014).

For assay [1], the target named is T1, recombinant human 11beta-HSD1 (Homo sapiens, UniProt P28845).
T1 construct: made in house; microsomal fraction used as enzyme source
Nature of the assay: In vitro inhibition of recombinant human 11beta-HSD1, microsomal Scintillation Proximity Assay (SPA). As to conditions: microsomes from HEK 293 EBNA cells, 250 nM [3H]-cortisone, 500 μM NADPH, pH 6.5, room temperature. The class given is biochemical. How it is done: The in vitro inhibition of recombinant human 11beta-HSD1 was determined as follows.
Cells were grown in DMEM (high glucose) containing MEM non-essential amino acids, L-glutamine, hygromycine B (200 ug/ml), and G418 (200 ug/ml). The cell pellets were homogenized, and the microsomal fraction was obtained by differential centrifugation. 11beta-HSD1 over expressed microsomes were used as the enzyme source for the Scintillation Proximity Assay (SPA). […] The reaction was terminated with the addition of 1 mM 18β-glycerrhentic acid. SPA reagent mixture (YSi anti-rabbit IgG, anti-cortisol antibody in 50 mM Tris, pH 8.0 containing 1% CHAPS and 1% glycerol) was added and the reaction was further incubated at room temperature over night and counted in TopCount.
In the structures set forth in Table 10, the “—O” attached to the carbon adjacent to the nitrogen in the bicyclic core is used to denote an “—OH” group as indicated in Formula I. Similarly, in the structures set forth in Table 10, the “N” adjacent to the carbon atom substituted with ═O in the bicyclic or tricyclic core is used to denote an “NH” moiety as indicated in Formula I-t.
On the technique in general: SPA uses beads or plates that emit light when radiolabelled molecules are held near them.

Assay [2] concerns hepatic glucose production. The settings on record: seven day treatment, patients with type 2 diabetes, versus placebo group; cited from earlier work.

T1 sequence (P28845 whole entry): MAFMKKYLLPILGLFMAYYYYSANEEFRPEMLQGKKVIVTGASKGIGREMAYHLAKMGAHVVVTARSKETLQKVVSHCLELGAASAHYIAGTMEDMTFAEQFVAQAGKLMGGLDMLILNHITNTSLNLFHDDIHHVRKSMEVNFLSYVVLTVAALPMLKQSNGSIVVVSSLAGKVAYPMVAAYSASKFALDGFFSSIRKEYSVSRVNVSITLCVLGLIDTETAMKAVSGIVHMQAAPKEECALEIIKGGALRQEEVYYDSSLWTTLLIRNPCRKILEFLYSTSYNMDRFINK

Consider “4,7-Dichloro-1-(2-chlorobenzylthio)isoquinolin-3-ol [Example 109]”, for which the IC50 in assay [1] (read-out: IC50 (concentration of compound required for 50% inhibition of cortisol formation)) is 671 nM.
For the compound `COc1cccc(CSc2nc(O)c(C#N)c3c2CCCC3)c1` [Example 17], the IC50 in assay [1] was 461 nM.
Consider `COc1ccc(CSc2nc(O)c(C#N)c3c2CCCC3)cc1` [Example 25], for which, in assay [1], the IC50 worked out at 467 nM.
Still for that read-out and setting: the result for `N#Cc1c(O)nc(SCc2ccccc2C(=O)O)c2c1CCCC2` [Example 34] reads more than 10000 nM.
For `N#Cc1ccccc1CSc1nc(O)c(C#N)c2ccc(F)cc12` [Example 153], the IC50 in assay [1] was 1.45 nM.
As to `CC1(C)[C@@H](OC(=O)CCC(=O)O)CC[C@]2(C)[C@H]3C(=O)C=C4[C@@H]5C[C@@](C)(C(=O)O)CC[C@]5(C)CC[C@@]4(C)[C@]3(C)CC[C@@H]12` [carbenoxolone], the hepatic glucose production result in assay [2] is reported as “decrease in hepatic glucose production”.
